In patent publication US20100022559A1, “BISOXIMES AS FUNGICIDES” (BAYER CROPSCIENCE AG, priority 2006, published 2010) one finds logP and chromatographic logP data, which are given here for 63 compounds.

The first data set can be described thus: logP determination by HPLC on a reversed-phase column (C 18), EEC Directive 79/831 Annex V.A8. The settings on record: [a] acidic range, pH 2.3, 0.1% aqueous phosphoric acid and acetonitrile. The data set is classed as physicochemical. The method, then:
The stated logP values were determined in accordance with EEC Directive 79/831 Annex V.A8 by HPLC (high performance liquid chromatography) on a reversed-phase column (C 18). Temperature: 43° C.
As for `Cc1cccc(C(=NOCCCON)C(C)C)n1` [XII-2], the logP was 1.05^[a].
`Cc1cccc(C(=NOCCCON)C(C)C)n1` [XII-1]: the logP is 1.12^[a].

The same data set, now with this note: method marked [a] in Table 1.
In the case of `CCC(=NOCC(C)CON=C(CC)c1cc(C)cc(C)n1)c1cc(C)cc(C)n1` (single isomer, unassigned) [compound 691], the logP was 2.75^[a] (isomer A).

Staying with this data set, now noted: method marked [b] in Table 1.
With `CC(=NOCC(C)(C)CON=C(CC(C)C)c1cccc(C)n1)c1cccc(C)n1` [Compound 538], the logP was 6.47^[b].
Still for that read-out and setting: under `CC(=NOCC(C)CON=C(C)c1cccc(C(=O)c2ccccc2)n1)c1cccc(C)n1` (centres unmarked) [Compound 690] stands 5.75^[b]; under `CCC(=NOCC1(CON=C(CC)c2cccc(C)n2)CC(c2ccc(Cl)cc2)=NO1)c1cccc(C)n1` (centres unmarked) [compound 612], 5.84^[b].
`Cc1cccc(C=NOCC=CCON=Cc2cccc(C)n2)n1` [compound 737]: the logP is 2.18^[b].
Still for that read-out and setting: under `Cc1cccc(C(N)=NOCC(C)CON=C(N)c2cccc(C)n2)n1` (centres unmarked) [compound 689] stands 2.71^[b]; under `C=C(CON=C(C)c1cccc(C)n1)CON=C(C)c1sc(C)nc1C` (single isomer, unassigned) [compound 544], 3.00^b] (Isomer A).

The data set is the same for the next values; noted with them: method marked [c] in Table 1.
`CCCc1nc(C(C)=NOCC(C)CON=C(C)c2ccc(C)c(CCC)n2)ccc1C` (centres unmarked) [Compound 550]: the logP is 7.36^[c].

The same data set, now with this note: method marker [a] (footnote not shown); isomer A / isomer B / isomer mixture as noted in the cell.
With `Cc1cccnc1C(Cc1ccccc1)=NOCC(C)CON=C(Cc1ccccc1)c1ncccc1C` (single isomer, unassigned) [compound 108], the logP was 5.32^[a] (isomer A).
As for `C=CCCC(=NOCC(C)CON=C(CCC=C)c1ncccc1C)c1ncccc1C` (centres unmarked) [compound 130], the logP was 5.06^[a].
Consider `CC(=NOCC(C)CON=C(C)c1cc(C)cc(C)n1)c1cc(C)cc(C)n1` (centres unmarked) [Compound 225], for which the logP is 2.11^[a].
With `Cc1ccc(C(=NOCCCON=C(c2ccc(C)c(C)n2)C(C)C)C(C)C)nc1C` (mixture of isomers) [compound 238], the logP was 4.94^[a].
As for `C=C(CON=C(CC)c1cccc(C)n1)CON=C(CC)c1cccc(C)n1` [Compound 239], the logP was 5.16^[a].
For `CCCc1cccc(C(C)=NOCC(C)CON=C(C)c2cccc(CCC)n2)n1` (centres unmarked) [Compound 175], the logP is 7.36^[a].
The same measure, in the same setting: in the case of `CC(=NOC(=O)CCC(=O)ON=C(C)c1cccc(C)n1)c1cccc(C)n1` [compound 159] it was 2.40^[a].
On to `CCc1ccnc(C(C)=NOCC(C)CON=C(C)c2cc(CC)ccn2)c1` (centres unmarked) [compound 105], for which the logP was 3.62^[a].

Still in this data set, the particulars now being: method marker [b]; isomer A / isomer B / isomer mixture as noted in the cell.
Consider `C=C(CON=C(C)c1ccc(C)c(C)n1)CON=C(C)c1ccc(C)c(C)n1` [Compound 67], for which the logP was 2.82^[b].
Same read-out and setting: in the case of `CC(=NOCCCON=C(C)c1ccccn1)c1ccccn1` [compound 31] it was 2.67^[b]; in that of `C=C(CON=C(C)c1cccc(C)n1)CON=C(CC(C)C)c1ncccc1C` (mixture of isomers) [compound 154], 5.08^[b]; in that of `C=C(CON=C(C)c1cccc(C)n1)CON=C(C)c1c(C)noc1C` [compound 198], 3.50^[b].
`C=C(CON=C(N)c1cc(Cl)cc(Cl)c1)CON=C(C)c1cccc(C)n1` [compound 190]: the logP is 4.32^[b].
Same read-out and setting: in the case of `C=C(CON=C(C)c1cccc(C)n1)CON=C(C)c1cccn1C` [compound 197] it was 4.37^[b]; in that of `C=C(CON=C(C)c1cccc(C)n1)CON=C(C)c1nc(C)cc(C)n1` [Compound 188], 2.69^[b]; in that of `C=C(CO/N=C(\N)c1nc(C)c2c(n1)CCCC2)CO/N=C(\N)c1nc(C)c2c(n1)CCCC2` [compound 43], 2.67^[b].
Turning to `C=C(CON=C(C)c1cccc(C)c1)CON=C(C)c1cccc(C)n1` [compound 205], the logP was 5.03^[b].

Staying with this data set, now noted: reversed-phase HPLC column (C 18); HCO2H; HPLC reversed-phase column (C 18), 43° C.; read-out: logP (HCO2H).
Turning to `C/C(=N\OCC1(CON)CC1)c1ccc(C)c(C)n1` [XII-8, (1E)-1-(5,6-dimethylpyridin-2-yl)ethanone O-({1-[(aminooxy)methyl]-cyclopropyl}methyl)oxime], the chromatographic logP was determined as 0.73.
Consider `C/C(=N\OCC(C)CO/N=C(\C)c1cccc(C)n1)c1cccc(C)n1` [1-(6-methylpyridin-2-yl)ethanone O,O′-(2-methylpropane-1,3-diyl)oxime], for which the chromatographic logP came to 2.31.

Staying with this data set, now noted: reversed-phase HPLC column (C 18); [a] acidic range, pH 2.3, 0.1% aqueous phosphoric acid and acetonitrile; read-out: logP.
With `C/C(=N\OCC1(CON)CC1)c1ccc(C)c(C)n1` [XII-8, (1E)-1-(5,6-dimethylpyridin-2-yl)ethanone O-({1-[(aminooxy)methyl]-cyclopropyl}methyl)oxime], the chromatographic logP is 0.53.

The data set is the same for the next values; noted with them: reversed-phase HPLC column (C 18); [b] LC-MS, acidic range, pH 2.7, 0.1% aqueous formic acid and acetonitrile; read-out: logP.
Consider `C/C(=N\OCC1(CON)CC1)c1ccc(C)c(C)n1` [XII-8, (1E)-1-(5,6-dimethylpyridin-2-yl)ethanone O-({1-[(aminooxy)methyl]-cyclopropyl}methyl)oxime], for which the chromatographic logP turned out to be 0.53.

The data set is the same for the next values; noted with them: reversed-phase HPLC column (C 18); [c] LC-MS, neutral range, pH 7.8, 0.001 molar aqueous ammonium bicarbonate solution and acetonitrile; read-out: logP.
Regarding `C/C(=N\OCC1(CON)CC1)c1ccc(C)c(C)n1` [XII-8, (1E)-1-(5,6-dimethylpyridin-2-yl)ethanone O-({1-[(aminooxy)methyl]-cyclopropyl}methyl)oxime], the chromatographic logP is 2.44.

The data set is the same for the next values; noted with them: value marked [a].
As for `CC(=NOCC(C)CON=C(C)c1cccc(C(F)F)n1)c1cccc(C(F)F)n1` (centres unmarked) [compound 306], the logP is 5.49^[a].
In the case of `CC(=NOC(=O)NCCCC(C)CNC(=O)ON=C(C)c1cccc(C)n1)c1cccc(C)n1` (centres unmarked) [compound 863], the logP is 2.46^[a].
With `C=C(CON=C(OCC)c1cccc(C)n1)CON=C(OCC)c1ccc(C)c(C)n1` [Compound 843], the logP was 2.25^[a].
Consider `COc1cc(C)nc(C(C)=NOCC2(CON=C(C)c3cc(OC)cc(C)n3)CC2)c1` [Compound 816], for which the logP is 1.34^[a].
As for `CC(=NOC(=O)NCCCCNC(=O)ON=C(C)c1cccc(C)n1)c1cccc(C)n1` [compound 864], the logP was 1.97^[a].
Take `Cc1cc(C)nc(C(C#N)=NOCC(C)CON=C(C#N)c2cc(C)cc(C)n2)c1` (centres unmarked) [Compound 838]: the logP is 4.84^[a].
Same read-out and setting: in the case of `C=C(CON=C(C#N)c1cccc(C)n1)CON=C(C#N)c1cccc(C)n1` [Compound 784] it was 3.84^[a]; in that of `CCOc1cc(C)nc(C(C)=NOCC(C)(C)CON=C(C)c2cc(OCC)cc(C)n2)c1` [Compound 841], 2.00^[a]; in that of `Cc1cccc(C(C#N)=NOCC(C)CON=C(C#N)c2cccc(C)n2)n1` (centres unmarked) [compound 827], 4.20^[a].
Regarding `CC(=NOCC1CCCCC1ON=C(C)c1cccc(C)n1)c1cccc(C)n1` (centres unmarked) [Compound 823], the logP was 5.9^[a].
For `CC(=NOCC(C)CON=C(C)c1cc(C2CC2)cc(C)n1)c1cc(Cl)cc(C)n1` (centres unmarked) [compound 846], the logP is 5.23^[a].
Regarding `CC(=NOCC(C)CON=C(C)c1cccc(C2CC2)n1)c1cccc(C2CC2)n1` (centres unmarked) [compound 815], the logP is 7.36^[a].
`CC(=NOCCCCON=C(C)c1cccc(C)n1)c1ccc2ccccc2c1` [compound 445]: the logP is 5.72^[a].
Turning to `CC(=NOCC(C)(C)CON=C(C)c1cc(C2CC2)cc(C)n1)c1cccc(C)n1` [Compound 818], the logP is 3.80^[a].
`CC(=NOCCCON=C(C)c1ccc2c(n1)CCC2)c1ccc2c(n1)CCC2` [Compound 302]: the logP is 3.28^[a].

The data set is the same for the next values; noted with them: value marked [b].
Take `CC(=NOCC(C)(C)CON=C(C)c1cccc(C)n1)c1cnccn1` [compound 515]: the logP is 3.70^[b].
With `CCC(CC)(CON=C(C)c1nc(C)ccc1C)CON=C(C)c1nc(C)ccc1C` [compound 882], the logP is 3.90^[b].
For the compound `CCOC(=O)C(C)(CON=C(C)c1ccc(C)c(C)n1)CON=C(C)c1ccc(C)c(C)n1` (centres unmarked) [compound 854], the logP was 3.85^[b].
Turning to `C=C(CON=C(C)c1cccc(C)n1)CON=C(C)c1cncc(C)n1` [compound 480], the logP was 3.46^[b].
Regarding `C=C(CON=C(C)c1ccc(Cl)cc1)CON=C(C)c1cccc(C)n1` [compound 471], the logP was 5.48^[b].
With `CC(=NOCC(C)(C)CON=C(c1ccccc1)c1ncccc1C)c1cccc(C)n1` [compound 365], the logP is 4.51^[b].
`CC(=NOCCCCON=C(C)c1cccc(C)n1)c1ccc(Cl)cc1` [compound 444]: the logP was 5.54^[b].
On the same count and under the same terms, under `CCCC(CON=C(C)c1cccc(C)n1)CON=C(C)c1cccc(C)n1` (centres unmarked) [Compound 270] stands 5.14^[b].
`CC(=NOCCCCCCON=C(C)c1cncc(C)n1)c1cccc(C)n1` [compound 466]: the logP is 4.8^[b].
Take `C=C(CON=C(C)c1cccc(C)n1)CON=C(C)c1ccccc1Cl` [compound 402]: the logP was 4.74^[b].
As to `C=C(CON=C(C)c1cc(C)ccn1)CON=C(C)c1cccc(C)n1` [compound 398], the logP is 2.76^[b].
Regarding `CC(=NOCCCCCCON=C(C)c1cccc(C)n1)c1cccnc1` [compound 396], the logP was 3.15^b].
On to `COC(CON=C(C)c1ccc(C)c(C)n1)CON=C(C)c1ccc(C)c(C)n1` (centres unmarked) [Compound 321], for which the logP is 1.95^[b].
Same read-out and setting: in the case of `CC(=NOCCCCON=C(C)c1cccc(C)n1)c1cc(C)ccn1` [Compound 373] it was 2.66^[b]; in that of `CCC(CC)(CON=C(C)c1ccc(C)c(C)n1)CON=C(C)c1ccc(C)c(C)n1` [Compound 810], 6.50^[b].
Same read-out and setting: in the case of `CC(=NOCCCCON=C(C)c1cccc(C(C)C)n1)c1cccc(C)n1` [compound 452] it was 5.97^[b]; in that of `C=C(CON=C(C)c1cccc(Cl)c1)CON=C(C)c1cccc(C)n1` [compound 469], 5.31^[b].
`C=C(CON=C(C)c1nc(C)ccc1C)CON=C(C)c1nc(C)ccc1C` (single isomer, unassigned) [compound 307]: the logP is 2.37^[b] (isomer A).
With `CC(=NOCCCCON=C(c1ccccc1)c1cccc(C)n1)c1cccc(C)n1` [compound 332], the logP was 3.51^[b].

The same data set, now with this note: value marked [c].
For the compound `CCC(CC)(CON=C(C)c1nc(C)ccc1C)CON=C(C)c1nc(C)ccc1C` [compound 882], the logP was 5.41^[c].
For the compound `CCOC(=O)C(C)(CON=C(C)c1ccc(C)c(C)n1)CON=C(C)c1ccc(C)c(C)n1` (centres unmarked) [compound 854], the logP was 5.82^[c].
In the case of `COc1cc(C)nc(C(C)=NOCC2(CON=C(C)c3cc(OC)cc(C)n3)CC2)c1` [Compound 816], the logP was 4.94^[c].
On to `CCOc1cc(C)nc(C(C)=NOCC(C)(C)CON=C(C)c2cc(OCC)cc(C)n2)c1` [Compound 841], for which the logP is 6.90^[c].
Same read-out and setting: under `CC(=NOCC(C)CON=C(C)c1cc(C2CC2)cc(C)n1)c1cc(Cl)cc(C)n1` (centres unmarked) [compound 846] stands 7.36^[c]; under `CC(=NOCC(C)(C)CON=C(C)c1cc(C2CC2)cc(C)n1)c1cccc(C)n1` [Compound 818], 6.57^[c].
For the compound `COC(CON=C(C)c1ccc(C)c(C)n1)CON=C(C)c1ccc(C)c(C)n1` (centres unmarked) [Compound 321], the logP is 5.06^[c].
Take `CCC(CC)(CON=C(C)c1ccc(C)c(C)n1)CON=C(C)c1ccc(C)c(C)n1` [Compound 810]: the logP was 7.36^[c].
